Results: US8686037B2, “Use of piracetam for treating diabetic nephropathy” (Uniwersytet Jagiellonski, priority 2009, dated 2014)

Experiments:
albumin [1] = target: T1, albumin (Homo sapiens, UniProt P02768); experiment: Measurement of albumin glycation using spectrofluorimetric method (Ex/Em 370/440 nm); format: biochemical; conditions: 5 mM; albumin incubated with glucose 0.5 M for 4 weeks
Experimental: Glycation of protein in vitro was carried out according to following scheme: • 50 mg of protein (albumin, myoglobin) was dissolved in 1 ml 0.01M PBS (pH 7.4), containing D-glucose (0.1; 0.3; 0.5; 1M) and 5 mM toluene (as a bacteriostatic compound). The examined drug or aminoguanidine hydrochloride were added to samples at final concentrations from 0.1 mM to 5 mM. Samples were incubated at 37° C., in dark, for a specified period of time (1, 2, 3 and 4 weeks). Then, the protein was concentrated by ultrafiltration (30 min at 4000×g, 16° C.) with Amicon 50 cartridges (Millipore) with cut-off of 50 kDa (in case of albumin) or Amicon 10 cartridges with cut-off of 10 kDa (in case of myoglobin). The concentrated protein samples were dialyzed for 24 hrs, against distilled water, using dialysis membranes: Spectra Por (cut-off of 50 kDa for albumin and cut-off of 12-14 kDa for myoglobin). Then the samples were lyophilized overnight. • Control samples were prepared as above except of addition of glucose (control I) or drugs (control II). Sugar residues are characterized by fluorescence—Ex/Em 370/440 nm The action of drug is expressed by a suppression of the intensity of fluorescence. Lyophylized protein samples were dissolved in 0.01M PBS (pH 7.4), at concentration 0.5 mg protein/1 ml of buffer. […] Fluorescence intensity was measured at 440 nm emission upon excitation of 370 nm.

albumin [2] = target: T1, albumin; experiment: Measurement of glycation by mass spectrometry (gain of molecular weight of albumin incubated with glucose); format: biochemical
Experimental: Glycation of protein in vitro was carried out according to following scheme: • 50 mg of protein (albumin, myoglobin) was dissolved in 1 ml 0.01M PBS (pH 7.4), containing D-glucose (0.1; 0.3; 0.5; 1M) and 5 mM toluene (as a bacteriostatic compound). The examined drug or aminoguanidine hydrochloride were added to samples at final concentrations from 0.1 mM to 5 mM. Samples were incubated at 37° C., in dark, for a specified period of time (1, 2, 3 and 4 weeks). Then, the protein was concentrated by ultrafiltration (30 min at 4000×g, 16° C.) with Amicon 50 cartridges (Millipore) with cut-off of 50 kDa (in case of albumin) or Amicon 10 cartridges with cut-off of 10 kDa (in case of myoglobin). The concentrated protein samples were dialyzed for 24 hrs, against distilled water, using dialysis membranes: Spectra Por (cut-off of 50 kDa for albumin and cut-off of 12-14 kDa for myoglobin). Then the samples were lyophilized overnight. • Control samples were prepared as above except of addition of glucose (control I) or drugs (control II). The method is based on a measurement of protein molecular weight (albumin, myoglobin), which is increased in proportion to the number of bound sugar moieties. […] Based on obtained MS spectra, average protein molecular weight was calculated using BioWorks 1.0 software (Finnigan, San Jose, USA).

[3] = Glycaemia in streptozotocin-induced diabetes model; format: in vivo, Sprague-Dawley rats; conditions: rats injected with STZ; 354±40 mg/kg/day in drinking water, 8 weeks
Experimental: (§1) All experimental studies using animals were approved by an Ethical Committee at the Jagiellonian University. Diabetes model was established by the single, intraperitoneal administration of streptozotocin (STZ, 75 mg/kg in citrate buffer, pH 4.5) to three-month Sprague-Dawley rats. In order to maintain glycaemia between 350 and 450 mg/dL, animals were treated twice a week by insulin (neutral protamine Hagedorn, NPH, 2-3 U/300 g of body weight).
(§2) The rats were divided into three groups (each one of n=4 animals): “control” group—animals injected with citrate buffer only (sham animals), “diabetes” group—STZ treated animals and “STZ+drug” group—STZ-rats treated with examined drug (354±40 mg/kg/day in drinking water). The experiment lasted 8 weeks. Animals were anesthetized and killed, and both the tissue samples (kidneys, heart, lungs, brain) as well as blood samples were harvested. The presence of AGEs was evaluated by immunohistochemistry, with use of specific antibodies (Abcam, USA).

AGEs = experiment: Immunohistochemistry for AGEs in renal glomeruli, streptozotocin-induced diabetes model; format: in vivo, Sprague-Dawley rats; conditions: STZ rats; 354±40 mg/kg/day in drinking water, 8 weeks; kidney
Experimental: as §1, §2

T1 sequence (P02768 25-609, species assumed): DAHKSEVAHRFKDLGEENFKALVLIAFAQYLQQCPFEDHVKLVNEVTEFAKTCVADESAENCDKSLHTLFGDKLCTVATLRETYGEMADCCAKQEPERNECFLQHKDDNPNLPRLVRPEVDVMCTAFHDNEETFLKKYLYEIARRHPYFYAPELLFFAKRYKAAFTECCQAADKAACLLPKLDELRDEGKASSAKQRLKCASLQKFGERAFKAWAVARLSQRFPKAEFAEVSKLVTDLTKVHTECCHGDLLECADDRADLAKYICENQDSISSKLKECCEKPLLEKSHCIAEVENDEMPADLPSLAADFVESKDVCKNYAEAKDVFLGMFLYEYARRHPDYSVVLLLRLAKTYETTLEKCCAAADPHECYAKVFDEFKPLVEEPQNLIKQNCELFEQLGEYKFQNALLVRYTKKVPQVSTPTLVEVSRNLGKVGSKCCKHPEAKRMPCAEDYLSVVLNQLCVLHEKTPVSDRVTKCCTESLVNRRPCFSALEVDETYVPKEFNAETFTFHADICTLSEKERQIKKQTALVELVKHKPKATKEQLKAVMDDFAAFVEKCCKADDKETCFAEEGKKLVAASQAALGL

SMILES | inhibition of glycation (spectrofluorimetric method) (albumin [1]) | inhibition of protein glycation (mass spectrometry method) (albumin [2]; 5 mM, albumin 50 mg/ml, glucose 0.5 M, 4 weeks, compared to mass of albumin incubated with glucose alone) | addition of glucose moieties to albumin (albumin [2]; in vitro model, FIG. 1, strength comparable to aminoguanidine) | glycaemia [3] | influence on glycaemia [3] | number of AGE-positive glomeruli (AGEs) | severity of changes in glomeruli (AGEs)
Cl.N=C(N)NN [aminoguanidine, aminoguanidine hydrochloride] | 67% | – | – | – | – | – | –
NC(=O)CN1CCCC1=O [tested compound, 2-(2-oxo-1-pyrrolidin-1-yl) acetamide] | 45% | 33% | inhibited dose-dependently | 429 ± 65.0 mg/dL | did not influence glycaemia | significantly reduced | significantly reduced
